Experimental data as given in patent US5179088A, “1-Carba(dethia)cephalosporin antibiotics” (Eli Lilly and Company, priority 1990, dated 1993).

What was measured:
Format in all cases: cell-based
Set-up in all cases: unit not given here
Enterbacter Aerogenes = assay: in vitro antibacterial activity, agar dilution (Enterobacter aerogenes)
Procedure: (§1) *minimum inhibitory concentrations were determined by the Agardilution

Klebsiella = assay: in vitro antibacterial activity, agar dilution (Klebsiella)
Procedure: as §1

Enterbacter Cloacea = assay: in vitro antibacterial activity, agar dilution (Enterobacter cloacae)
Procedure: as §1

Proteus morg = assay: in vitro antibacterial activity, agar dilution (Proteus morg)
Procedure: as §1

Salmonella = assay: in vitro antibacterial activity, agar dilution (Salmonella)
Procedure: as §1

Citro = assay: in vitro antibacterial activity, agar dilution (Citro)
Procedure: as §1

Pseudomonas = assay: in vitro antibacterial activity, agar dilution (Pseudomonas)
Procedure: as §1

Streptococcus pn = assay: in vitro antibacterial activity, agar dilution (Streptococcus pn); settings: strain PARK
Procedure: as §1

Serratia = assay: in vitro antibacterial activity, agar dilution (Serratia)
Procedure: as §1

Acin = assay: in vitro antibacterial activity, agar dilution (Acin)
Procedure: as §1

Proteus incon = assay: in vitro antibacterial activity, agar dilution (Proteus incon)
Procedure: as §1

Streptococcus D = assay: in vitro antibacterial activity, agar dilution (Streptococcus D)
Procedure: as §1

Proteus rett = assay: in vitro antibacterial activity, agar dilution (Proteus rett)
Procedure: as §1

H. Influ. = assay: in vitro antibacterial activity, agar dilution (H. influ.)
Procedure: as §1

E. coli = assay: in vitro antibacterial activity, agar dilution (E. coli)
Procedure: as §1

Staphylococcus Epi = assay: in vitro antibacterial activity, agar dilution (Staphylococcus epi)
Procedure: as §1

Streptococcus A = assay: in vitro antibacterial activity, agar dilution (Streptococcus A)
Procedure: as §1

Staphylococcus Aureus = assay: in vitro antibacterial activity, agar dilution (Staphylococcus aureus)
Procedure: as §1

Shig. sonn = assay: in vitro antibacterial activity, agar dilution (Shig. sonn); settings: strain N9
Procedure: as §1

SMILES: CO/N=C(\C(=O)N[C@@H]1C(=O)N2C(C(=O)O)=C(c3csc(-c4ccc(O)c(O)c4)n3)CC[C@H]12)c1csc(N)n1 [Example 40, Sodium 7β-[(2-aminothiazol-4-yl)-Z-methoximinoacetylamino]-1-carba-(1-dethia)-3-2-(3,4-dihydroxyphenyl)thiazol-4-yl-3-cephem-4-carboxylate]
- minimum inhibitory concentration (Enterbacter Aerogenes; strain C32): .5
- minimum inhibitory concentration (Enterbacter Aerogenes; strain C32, retest): .5
- minimum inhibitory concentration (Enterbacter Aerogenes; strain EB17): .03
- minimum inhibitory concentration (Enterbacter Aerogenes; strain EB17, retest): .06
- minimum inhibitory concentration (Klebsiella; strain KAE): 8
- minimum inhibitory concentration (Klebsiella; strain KAE, retest): 4
- minimum inhibitory concentration (Klebsiella; strain X26): .015
- minimum inhibitory concentration (Klebsiella; strain X26, retest): .03
- minimum inhibitory concentration (Klebsiella; strain X68): .06
- minimum inhibitory concentration (Klebsiella; strain X68, retest): .06
- minimum inhibitory concentration (Enterbacter Cloacea; strain 265A): 64
- minimum inhibitory concentration (Enterbacter Cloacea; strain 265A, retest): 32
- minimum inhibitory concentration (Enterbacter Cloacea; strain EB5): .25
- minimum inhibitory concentration (Enterbacter Cloacea; strain EB5, retest): .25
- minimum inhibitory concentration (Proteus morg; strain PR15): 4
- minimum inhibitory concentration (Proteus morg; strain PR15, retest): 4
- minimum inhibitory concentration (Salmonella; strain 1335): .06
- minimum inhibitory concentration (Salmonella; strain 1335, retest): .06
- minimum inhibitory concentration (Salmonella; strain X514): .03
- minimum inhibitory concentration (Salmonella; strain X514, retest): .03
- minimum inhibitory concentration (Citro; strain CF17): 4
- minimum inhibitory concentration (Citro; strain CF17, retest): 4
- minimum inhibitory concentration (Pseudomonas; strain PS18): 64
- minimum inhibitory concentration (Pseudomonas; strain PS18, retest): 64
- minimum inhibitory concentration (Pseudomonas; strain PS72, retest): 128
- minimum inhibitory concentration (Pseudomonas; strain X239, retest): 128
- minimum inhibitory concentration (Pseudomonas; strain X528): 8
- minimum inhibitory concentration (Pseudomonas; strain X528, retest): 16
- minimum inhibitory concentration (Streptococcus pn): .125
- minimum inhibitory concentration (Streptococcus pn; retest): .125
- minimum inhibitory concentration (Serratia; strain SE3): 1
- minimum inhibitory concentration (Serratia; strain SE3, retest): 2
- minimum inhibitory concentration (Serratia; strain X99): .25
- minimum inhibitory concentration (Serratia; strain X99, retest): .125
- minimum inhibitory concentration (Acin; strain AC12): 4
- minimum inhibitory concentration (Acin; strain AC12, retest): 2
- minimum inhibitory concentration (Proteus incon; strain PR33): .125
- minimum inhibitory concentration (Proteus incon; strain PR33, retest): .25
- minimum inhibitory concentration (Streptococcus D; strain 2041): 16
- minimum inhibitory concentration (Streptococcus D; strain 2041, retest): 16
- minimum inhibitory concentration (Streptococcus D; strain X66): > 128
- minimum inhibitory concentration (Streptococcus D; strain X66, retest): > 128
- minimum inhibitory concentration (Proteus rett; strain C24): .125
- minimum inhibitory concentration (Proteus rett; strain C24, retest): .25
- minimum inhibitory concentration (H. Influ.; res, strain 76): .015
- minimum inhibitory concentration (H. Influ.; res, strain 76, retest): .03
- minimum inhibitory concentration (H. Influ.; sens, strain C.L.): .125
- minimum inhibitory concentration (H. Influ.; sens, strain C.L., retest): .125
- minimum inhibitory concentration (E. coli; strain EC14): .06
- minimum inhibitory concentration (E. coli; strain EC14, retest): .06
- minimum inhibitory concentration (E. coli; strain N10): .125
- minimum inhibitory concentration (E. coli; strain N10, retest): .125
- minimum inhibitory concentration (E. coli; strain TEM): .06
- minimum inhibitory concentration (E. coli; strain TEM, retest): .03
- minimum inhibitory concentration (Staphylococcus Epi; strain 222): 16
- minimum inhibitory concentration (Staphylococcus Epi; strain 222, retest): 16
- minimum inhibitory concentration (Staphylococcus Epi; strain 270): 32
- minimum inhibitory concentration (Staphylococcus Epi; strain 270, retest): 16
- minimum inhibitory concentration (Streptococcus A; strain C203): .06
- minimum inhibitory concentration (Streptococcus A; strain C203, retest): .125
- minimum inhibitory concentration (Staphylococcus Aureus; strain S13E): 64
- minimum inhibitory concentration (Staphylococcus Aureus; strain S13E, retest): 64
- minimum inhibitory concentration (Staphylococcus Aureus; strain V41): 16
- minimum inhibitory concentration (Staphylococcus Aureus; strain V41, retest): 8
- minimum inhibitory concentration (Staphylococcus Aureus; strain X1.1): 8
- minimum inhibitory concentration (Staphylococcus Aureus; strain X1.1, retest): 8
- minimum inhibitory concentration (Staphylococcus Aureus; strain X400): > 128
- minimum inhibitory concentration (Staphylococcus Aureus; strain X400, retest): > 128

SMILES: Cn1c([N+](=O)[O-])cnc1-c1nc(C2=C(C(=O)O)N3C(=O)[C@@H](NC(=O)/C(=N\O)c4csc(N)n4)[C@H]3CC2)cs1 [Example 33, 7β-[(2-Aminothiazol-4-yl)-Z-hydroxyiminoacetylamino]-1-carba-(1-dethia)-3-[2-(4-nitro-3-methylimidazol-2-yl)thiazol-4-yl]-3-cephem-4-carboxylicacid]
- minimum inhibitory concentration (Enterbacter Aerogenes; strain C32): 1
- minimum inhibitory concentration (Enterbacter Aerogenes; strain EB17): 1
- minimum inhibitory concentration (Klebsiella; strain KAE): 2
- minimum inhibitory concentration (Klebsiella; strain X26): .015
- minimum inhibitory concentration (Klebsiella; strain X68): 1
- minimum inhibitory concentration (Enterbacter Cloacea; strain 265A): 16
- minimum inhibitory concentration (Enterbacter Cloacea; strain EB5): 1
- minimum inhibitory concentration (Proteus morg; strain PR15): 4
- minimum inhibitory concentration (Salmonella; strain 1335): 2
- minimum inhibitory concentration (Salmonella; strain X514): .5
- minimum inhibitory concentration (Citro; strain CF17): 4
- minimum inhibitory concentration (Streptococcus pn): .015
- minimum inhibitory concentration (Serratia; strain SE3): 16
- minimum inhibitory concentration (Serratia; strain X99): 2
- minimum inhibitory concentration (Shig. sonn): 2
- minimum inhibitory concentration (Acin; strain AC12): 128
- minimum inhibitory concentration (Proteus incon; strain PR33): .25
- minimum inhibitory concentration (Streptococcus D; strain 2041): 1
- minimum inhibitory concentration (Streptococcus D; strain X66): 128
- minimum inhibitory concentration (Proteus rett; strain C24): .06
- minimum inhibitory concentration (H. Influ.; res, strain 76): .015
- minimum inhibitory concentration (H. Influ.; sens, strain C.L.): .06
- minimum inhibitory concentration (E. coli; strain EC14): 1
- minimum inhibitory concentration (E. coli; strain N10): 2
- minimum inhibitory concentration (E. coli; strain TEM): 1
- minimum inhibitory concentration (Staphylococcus Epi; strain 222): 1
- minimum inhibitory concentration (Staphylococcus Epi; strain 270): 4
- minimum inhibitory concentration (Streptococcus A; strain C203): < .008
- minimum inhibitory concentration (Staphylococcus Aureus; strain S13E): 4
- minimum inhibitory concentration (Staphylococcus Aureus; strain V41): .5
- minimum inhibitory concentration (Staphylococcus Aureus; strain X1.1): .06
- minimum inhibitory concentration (Staphylococcus Aureus; strain X400): > 128

SMILES: Nc1nc(C2=C(C(=O)O)N3C(=O)[C@@H](NC(=O)[C@H](N)c4ccccc4)[C@H]3CC2)cs1 [Example 41, 7β-(D-phenylglycylamino)-1-carba-(1-dethia)-3-(2-aminothiazol-4-yl)-3-cephem-4-carboxylic acid]
- minimum inhibitory concentration (Enterbacter Aerogenes; strain C32): 128
- minimum inhibitory concentration (Enterbacter Aerogenes; strain EB17): 128
- minimum inhibitory concentration (Klebsiella; strain KAE): 128
- minimum inhibitory concentration (Klebsiella; strain X26): 16
- minimum inhibitory concentration (Klebsiella; strain X68): 128
- minimum inhibitory concentration (Enterbacter Cloacea; strain 265A): > 128
- minimum inhibitory concentration (Enterbacter Cloacea; strain EB5): 128
- minimum inhibitory concentration (Proteus morg; strain PR15): 128
- minimum inhibitory concentration (Salmonella; strain 1335): 128
- minimum inhibitory concentration (Salmonella; strain X514): 128
- minimum inhibitory concentration (Citro; strain CF17): > 128
- minimum inhibitory concentration (Pseudomonas; strain PS18): > 128
- minimum inhibitory concentration (Pseudomonas; strain PS72): > 128
- minimum inhibitory concentration (Pseudomonas; strain X239): > 128
- minimum inhibitory concentration (Pseudomonas; strain X528): > 128
- minimum inhibitory concentration (Streptococcus pn): 2
- minimum inhibitory concentration (Serratia; strain SE3): 128
- minimum inhibitory concentration (Serratia; strain X99): 128
- minimum inhibitory concentration (Acin; strain AC12): > 128
- minimum inhibitory concentration (Proteus incon; strain PR33): 128
- minimum inhibitory concentration (Streptococcus D; strain 2041): > 128
- minimum inhibitory concentration (Streptococcus D; strain X66): > 128
- minimum inhibitory concentration (Proteus rett; strain C24): > 128
- minimum inhibitory concentration (H. Influ.; res, strain 76): 32
- minimum inhibitory concentration (H. Influ.; sens, strain C.L.): 64
- minimum inhibitory concentration (E. coli; strain EC14): 64
- minimum inhibitory concentration (E. coli; strain N10): 128
- minimum inhibitory concentration (E. coli; strain TEM): 64
- minimum inhibitory concentration (Staphylococcus Epi; strain 222): 16
- minimum inhibitory concentration (Staphylococcus Epi; strain 270): 32
- minimum inhibitory concentration (Streptococcus A; strain C203): 2
- minimum inhibitory concentration (Staphylococcus Aureus; strain S13E): 64
- minimum inhibitory concentration (Staphylococcus Aureus; strain V41): 32
- minimum inhibitory concentration (Staphylococcus Aureus; strain X1.1): 4
- minimum inhibitory concentration (Staphylococcus Aureus; strain X400): > 128
